Results as given in US20260042755A1, “GPR6 INVERSE AGONISTS” (MapLight Therapeutics, Inc., priority 2022, published 2026).
pIC50: −log10 of the molar value.

Columns and labels:
[1] = target: T1, GPR6 (Homo sapiens, UniProt P46095); assay: GPR6 antagonist functional cAMP assay (LANCE Ultra cAMP TR-FRET, CHO cells stably expressing GPR6); type: cell-based
T1 construct: expressed in transfected cells; host or cells: CHO cells
Outline: (§1)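 Read-out was TR-FRET cAMP signal at 665 nm after 1 h at room temperature, following 45 min compound exposure at 37 °C. Assay buffer contained 0.1% BSA and 150 μM Ro 20-1724. Antagonist IC50s were fitted with a 4-parameter logistic against DMSO and reference controls.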

[2] = target: T2, GPR3 (Homo sapiens, UniProt P46089); assay: GPR3 antagonist functional cAMP assay (LANCE Ultra cAMP TR-FRET, CHO cells stably expressing GPR3); type: cell-based
T2 construct: expressed in transfected cells; host or cells: CHO cells
Outline: as §1

[3] = CHO cells stably expressing GPR6, cAMP assay (Example 24)
[4] = CHO cells stably expressing GPR3, cAMP assay (Example 24)
[5] = CHO cells stably expressing GPR6, cAMP assay
[6] = CHO cells stably expressing GPR3, cAMP assay

T1 sequence (P46095 whole entry): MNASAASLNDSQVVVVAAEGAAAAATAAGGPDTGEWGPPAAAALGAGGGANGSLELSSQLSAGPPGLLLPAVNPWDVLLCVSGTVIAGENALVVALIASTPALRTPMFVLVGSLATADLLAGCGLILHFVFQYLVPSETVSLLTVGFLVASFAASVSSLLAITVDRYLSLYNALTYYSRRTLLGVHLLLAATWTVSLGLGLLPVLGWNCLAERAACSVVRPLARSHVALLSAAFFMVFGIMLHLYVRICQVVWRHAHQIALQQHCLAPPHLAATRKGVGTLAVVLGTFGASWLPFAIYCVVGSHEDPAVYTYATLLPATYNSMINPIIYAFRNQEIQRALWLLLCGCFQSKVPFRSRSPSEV
T2 sequence (P46089 whole entry, species assumed): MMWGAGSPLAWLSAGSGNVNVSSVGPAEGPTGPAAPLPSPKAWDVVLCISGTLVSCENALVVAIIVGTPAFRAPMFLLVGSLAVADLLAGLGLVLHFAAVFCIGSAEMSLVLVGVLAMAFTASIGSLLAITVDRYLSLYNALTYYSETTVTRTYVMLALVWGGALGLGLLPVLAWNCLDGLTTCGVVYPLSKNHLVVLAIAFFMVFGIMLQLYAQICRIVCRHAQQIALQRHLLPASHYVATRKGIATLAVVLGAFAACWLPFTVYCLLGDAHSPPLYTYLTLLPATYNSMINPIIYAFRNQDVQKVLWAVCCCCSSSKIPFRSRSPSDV

| Compound | pIC50 [1, 3] | pIC50 [2, 4] | pIC50 ([1]; procedure of Example 24) | pIC50 ([2]; procedure of Example 24) | other results |
| --- | --- | --- | --- | --- | --- |
| CC(=O)N1CCc2nc(N3CCC(C(=O)N4CCN(C)C(=O)C4)C3)c(-c3cnn(C)c3)nc2C1 (stereo not drawn) [Compound 390, 4-{1-[6-acetyl-3-(1-methyl-1H-pyrazol-4-yl)-5H,6H,7H,8H-pyrido[3,4-b]pyrazin-2-yl]pyrrolidine-3-carbonyl}-1-methylpiperazin-2-one] | 4.52 to 6.00 | 4.52 to 6.00 |  |  |  |
| CC(=O)N1CCC=C(c2nc3c(nc2N2CCC(Oc4ccc(F)cc4F)CC2)CCN(C(C)=O)C3)C1 [Compound 71, 1-[3-(1-acetyl-1,2,5,6-tetrahydropyridin-3-yl)-2-[4-(2,4-difluorophenoxy)piperidin-1-yl]-5H,6H,7H,8H-pyrido[3,4-b]pyrazin-6-yl]ethan-1-one] | 4.52 to 6.00 | 4.52 to 6.00 |  |  |  |
| O=C(CN1CCOCC1)N1CCc2nc(N3CCC(Oc4ccc(F)cc4F)CC3)c(-c3cn[nH]c3)nc2C1 [Compound 149, 1-{2-[4-(2,4-difluorophenoxy)piperidin-1-yl]-3-(1H-pyrazol-4-yl)-5H,6H,7H,8H-pyrido[3,4-b]pyrazin-6-yl}-2-(morpholin-4-yl)ethan-1-one] | 6.00 to 7.00 | 4.52 to 6.00 |  |  |  |
| COc1ccc(-c2nc3c(nc2N2CCC(Oc4ccc(F)cc4F)CC2)CCN(C(C)=O)C3)nn1 [Compound 189, 1-{2-[4-(2,4-difluorophenoxy)piperidin-1-yl]-3-(6-methoxypyridazin-3-yl)-5H,6H,7H,8H-pyrido[3,4-b]pyrazin-6-yl}ethan-1-one] | 6.00 to 7.00 | 4.52 to 6.00 |  |  |  |
| COC[C@@H]1C[C@H]1c1nc2c(nc1N1CCC(Oc3ccc(F)cc3F)CC1)CCN(C(C)=O)C2 [Compound 547, 1-{3-[(1R,2R)-2-(methoxymethyl)cyclopropyl]-2-[4-(2,4-difluorophenoxy)-1-piperidyl]-5,6,7,8-tetrahydro-1,4,6-triaza-6-naphthyl}-1-ethanone] |  |  |  |  | pIC50 [1, 5]: 4.52 to 6.00; pIC50 [2, 6]: 4.52 to 6.00 |
| CC(=O)N1CCc2nc(N3CC=CC3)c(-c3cnn(C)c3)nc2C1 [Compound 451, 1-[2-(2,5-dihydro-1H-pyrrol-1-yl)-3-(1-methyl-1H-pyrazol-4-yl)-5H,6H,7H,8H-pyrido[3,4-b]pyrazin-6-yl]ethan-1-one] | ≤ 4.52 | 4.52 to 6.00 |  |  |  |
| 1-[3-(1-methyl-4-pyrazolyl)-2-{4- [(o-nitrophenyl)methyl]-1- piperazinyl}-5,6,7,8-tetrahydro- 1,4,6-triaza-6-naphthyl]-1- ethanone [Compound 527] |  |  |  |  | pIC50 [1, 5]: 6.00 to 7.00; pIC50 [2, 6]: 4.52 to 6.00 |
| CC(C)(O)[C@H](O)c1cc2nc(N3CCC(=Cc4ccc(F)cc4F)CC3)c(-c3cnn(CF)c3)nc2cn1 (single isomer, unassigned) [Compound 784] |  |  | > 7.00 | 4.52 to 6.00 |  |
| CC(=O)N1CCc2nc(N3CCC(COc4ccc(F)cc4)C3)c(-c3cnn(C)c3)nc2C1 (stereo not drawn) [Compound 325, 1-(2-{3-[(4-fluorophenoxy)methyl]pyrrolidin-1-yl}-3-(1-methyl-1H-pyrazol-4-yl)-5H,6H,7H,8H-pyrido[3,4-b]pyrazin-6-yl)ethan-1-one] |  |  | 4.52 to 6.00 | 4.52 to 6.00 |  |
| CC(=O)N1CCc2nc(N3CCC(Oc4ccc(F)cc4F)CC3)c(C3=CC(O)CCC3)nc2C1 (stereo not drawn) [Compound 234, 1-{2-[4-(2,4-difluorophenoxy)piperidin-1-yl]-3-(3-hydroxycyclohex-1-en-1-yl)-5H,6H,7H,8H-pyrido[3,4-b]pyrazin-6-yl}ethan-1-one] | 4.52 to 6.00 | 4.52 to 6.00 |  |  |  |
| CC(C)(O)[C@@H](O)c1cc2nc(-c3cnn(CF)c3)c(N3CCN(Cc4ccccc4F)CC3)nc2cn1 (single isomer, unassigned) [Compound 713] |  |  | 6.00 to 7.00 | 4.52 to 6.00 |  |
| COCCN1CCc2nc(N3CCC(Oc4ccc(F)cc4F)CC3)c(-c3cn[nH]c3)nc2C1 [Compound 143, 4-(2,4-difluorophenoxy)-1-[6-(2-methoxyethyl)-3-(1H-pyrazol-4-yl)-5H,6H,7H,8H-pyrido[3,4-b]pyrazin-2-yl]piperidine] | 6.00 to 7.00 | 4.52 to 6.00 |  |  |  |
| COC[C@H]1CN(Cc2ccc(F)cc2F)CCN1c1nc2c(nc1-c1cnn(C)c1)CN(C(C)=O)CC2 (single isomer, unassigned) [Compound 249] | 4.52 to 6.00 | 4.52 to 6.00 |  |  |  |
| CC(C)(O)[C@H](O)c1cc2nc(N3CCN(Cc4ccc(F)cc4F)CC3)c(-c3cnn(C(F)F)c3)nc2cn1 (single isomer, unassigned) [Compound 396] | 6.00 to 7.00 | 4.52 to 6.00 |  |  |  |
| COCC(O)c1cc2nc(N3CCN(Cc4ccc(F)cc4F)CC3)c(-c3cnn(C(F)F)c3)nc2cn1 (stereo not drawn) [Compound 687, 1-{3-[1-(difluoromethyl)-4-pyrazolyl]-2-{4-[(2,4-difluorophenyl)methyl]-1-piperazinyl}-1,4,6-triaza-7-naphthyl}-2-methoxy-1-ethanol] |  |  | 6.00 to 7.00 | 4.52 to 6.00 |  |
| CC(=O)N1CCc2nc(N3CCN(C(CO)(CO)c4ccccc4F)CC3)c(-c3cnn(C)c3)nc2C1 [Compound 552, 1-(2-{4-[1-(o-fluorophenyl)-2-hydroxy-1-(hydroxymethyl)ethyl]-1-piperazinyl}-3-(1-methyl-4-pyrazolyl)-5,6,7,8-tetrahydro-1,4,6-triaza-6-naphthyl)-1-ethanone] |  |  |  |  | pIC50 [1, 5]: 4.52 to 6.00; pIC50 [2, 6]: ≤ 4.52 |
| CC(C)(O)C(O)c1cc2nc(-c3cnn(CF)c3)c(N3CCN(Cc4ccc(F)cc4F)CC3)nc2cn1 (single isomer, unassigned) [Compound 603] |  |  |  |  | pIC50 [1, 5]: > 7.00; pIC50 [2, 6]: 4.52 to 6.00 |
| CC(C)(O)Cc1cc2nc(-c3cnn(CF)c3)c(N3CCC(Oc4ccc(F)cc4F)CC3)nc2cn1 [Compound 717, 1-{3-[4-(2,4-difluorophenoxy)-1-piperidyl]-2-[1-(fluoromethyl)-4-pyrazolyl]-1,4,6-triaza-7-naphthyl}-2-methyl-2-propanol] |  |  | 6.00 to 7.00 | 4.52 to 6.00 |  |
| CC(C)(O)[C@@H](O)c1cc2nc(-c3cnn(CF)c3)c(N3CCN(Cc4cc(F)ccc4F)CC3)nc2cn1 (single isomer, unassigned) [Compound 724] |  |  | 6.00 to 7.00 | 4.52 to 6.00 |  |
| CC(C)(O)[C@@H](O)c1cc2nc(N3CCN(Cc4ccc(F)cc4F)CC3)c(-c3cnn(CF)c3)nc2cn1 (single isomer, unassigned) [Compound 599] |  |  |  |  | pIC50 [1, 5]: 6.00 to 7.00; pIC50 [2, 6]: 4.52 to 6.00 |
| CC(C)(O)Cc1cc2nc(N3CCC(Oc4ccc(F)cc4F)CC3)c(-c3cnn(C(F)F)c3)nc2cn1 [Compound 700, 1-{3-[1-(difluoromethyl)-4-pyrazolyl]-2-[4-(2,4-difluorophenoxy)-1-piperidyl]-1,4,6-triaza-7-naphthyl}-2-methyl-2-propanol] |  |  | 6.00 to 7.00 | 4.52 to 6.00 |  |
| CC(=O)N1CCc2nc(N3CCN(Cc4ccc(C(F)(F)F)cc4)CC3)c(-c3cnn(C)c3)nc2C1 [Compound 384, 1-[3-(1-methyl-1H-pyrazol-4-yl)-2-(4-{[4-(trifluoromethyl)phenyl]methyl}piperazin-1-yl)-5H,6H,7H,8H-pyrido[3,4-b]pyrazin-6-yl]ethan-1-one] | 4.52 to 6.00 | 4.52 to 6.00 |  |  |  |
| CC(C)(O)C(O)c1cc2nc(N3CCN(Cc4ccc(F)cc4F)CC3)c(-c3ccc(F)c(N)n3)nc2cn1 (stereo not drawn) [Compound 791, 1-[3-(6-amino-5-fluoro-2-pyridyl)-2-{4-[(2,4-difluorophenyl)methyl]-1-piperazinyl}-1,4,6-triaza-7-naphthyl]-2-methyl-1,2-propanediol] |  |  | 6.00 to 7.00 | 6.00 to 7.00 |  |
| CC(C)(O)C(C)(O)c1cc2nc(-c3cnn(C(F)F)c3)c(N3CCN(Cc4ccccc4F)CC3)nc2cn1 (stereo not drawn) [Compound 684, 2-{2-[1-(difluoromethyl)-4-pyrazolyl]-3-{4-[(o-fluorophenyl)methyl]-1-piperazinyl}-1,4,6-triaza-7-naphthyl}-3-methyl-2,3-butanediol] |  |  | 6.00 to 7.00 | 4.52 to 6.00 |  |
| CC(=O)N1CCc2nc(N3CCN(Cc4ccccc4C)CC3)c(-c3cnn(C)c3)nc2C1 [Compound 510, 1-[3-(1-methyl-4-pyrazolyl)-2-{4-[(o-tolyl)methyl]-1-piperazinyl}-5,6,7,8-tetrahydro-1,4,6-triaza-6-naphthyl]-1-ethanone] |  |  |  |  | pIC50 [1, 5]: 4.52 to 6.00; pIC50 [2, 6]: 4.52 to 6.00 |
| CC(C)(O)C(O)c1cc2nc(N3CCN(Cc4ccccc4F)CC3)c(-c3cnn(CF)c3)nc2cn1 (stereo not drawn) [Compound 606, 1-{3-[1-(fluoromethyl)-4-pyrazolyl]-2-{4-[(o-fluorophenyl)methyl]-1-piperazinyl}-1,4,6-triaza-7-naphthyl}-2-methyl-1,2-propanediol] |  |  |  |  | pIC50 [1, 5]: 6.00 to 7.00; pIC50 [2, 6]: 4.52 to 6.00 |
| Cn1cc(-c2nc3cc(C(O)C(C)(C)O)ncc3nc2N2CCC(Oc3ccc(F)cc3F)CC2)cn1 (single isomer, unassigned) [Compound 561] |  |  |  |  | pIC50 [1, 5]: > 7.00; pIC50 [2, 6]: 6.00 to 7.00 |
| CC(C)(O)C(C)(O)c1cc2nc(-c3cnn(C4CC4)c3)c(N3CCN(Cc4ccc(F)cc4F)CC3)nc2cn1 (stereo not drawn) [Compound 653, 2-[2-(1-cyclopropyl-4-pyrazolyl)-3-{4-[(2,4-difluorophenyl)methyl]-1-piperazinyl}-1,4,6-triaza-7-naphthyl]-3-methyl-2,3-butanediol] |  |  | 6.00 to 7.00 | 4.52 to 6.00 |  |
| CC(=O)N1CCc2nc(N3CCC(Oc4ccc(F)cc4F)CC3)c(-c3cccc(NC(C)C)n3)nc2C1 [Compound 103, 1-{2-[4-(2,4-difluorophenoxy)piperidin-1-yl]-3-{6-[(propan-2-yl)amino]pyridin-2-yl}-5H,6H,7H,8H-pyrido [3,4-b]pyrazin-6-yl}ethan-1-one] | 4.52 to 6.00 | ≤ 4.52 |  |  |  |
| COc1cncc(-c2nc3cnccc3nc2N2CC3(CC(Oc4ccc(F)cc4F)C3)C2)n1 [Compound 92, 2-(6-(2,4-difluorophenoxy)-2-azaspiro[3.3]heptan-2-yl)-3-(6-methoxypyrazin-2-yl)pyrido[3,4-b]pyrazine] | 4.52 to 6.00 | ≤ 4.52 |  |  |  |
